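Briefly, cells in 96-well plates were exposed to five compound concentrations for 48 h, and endpoints were estimated by linear interpolation. GI50: concentration for 50% inhibition of growth. Definition used: TGI = concentration required for complete inhibition of growth.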
Assays:
Assay in all cases: NCI anticancer screen, dose series, 48 h
[1] = system: HL-60(TB) leukemia
[2] = system: SN12C renal
[3] = system: U251 CNS
[4] = system: HCC-2998 colon
[5] = system: RPMI-8226 leukemia
[6] = system: NCI-H23 lung
[7] = system: NCI-H460 lung
[8] = system: SF-268 CNS
[9] = system: K-562 leukemia
[10] = system: IGROV1 ovarian
[11] = system: LOX IMVI melanoma
[12] = system: SK-MEL-28 melanoma
[13] = system: KM12 colon
[14] = system: MALME-3M melanoma
[15] = system: T-47D breast
[16] = system: SW-620 colon
[17] = system: SK-OV-3 ovarian
[18] = system: CCRF-CEM leukemia
[19] = system: A498 renal
[20] = system: 786-0 renal
[21] = system: M14 melanoma
[22] = system: HOP-92 NSCLC
[23] = system: MCF7 breast
[24] = system: SF-295 CNS
[25] = system: HCT-116 colon
[26] = system: UACC-257 melanoma
[27] = system: DU-145 prostate
[28] = system: OVCAR-4 ovarian
[29] = system: HCT-15 colon

CC1=NN(c2nc(N)nc(/C=C\c3ccccc3)n2)C(C)(C)C1
GI50 [1]: 10.8 µM
TGI [1]: 39.5 µM
GI50 [2]: 13.1 µM
TGI [2]: 26.6 µM
GI50 [3]: 3.19 µM
TGI [3]: 28.9 µM
GI50 [4]: 11.9 µM
TGI [4]: 26.1 µM
GI50 [5]: 3.02 µM
TGI [5]: 15 µM
GI50 [6]: 4.37 µM
TGI [6]: 18 µM
GI50 [7]: 13.1 µM
TGI [7]: 34.2 µM
GI50 [8]: 6.1 µM
TGI [8]: 24.4 µM
GI50 [9]: 3.98 µM
TGI [9]: 22.1 µM
GI50 [10]: 8.99 µM
TGI [10]: 24 µM
GI50 [11]: 1.99 µM
TGI [11]: 15 µM
GI50 [12]: 9.41 µM
TGI [12]: 22.3 µM
GI50 [13]: 1.59 µM
TGI [13]: 10.5 µM
GI50 [14]: 10.7 µM
TGI [14]: 29.4 µM
GI50 [15]: 2.5 µM
TGI [15]: 15.1 µM
GI50 [16]: 4.48 µM
TGI [16]: 44.2 µM
GI50 [17]: 6.66 µM
TGI [17]: 36.1 µM
GI50 [18]: 2.99 µM
TGI [18]: 34.7 µM
GI50 [19]: 5.58 µM
TGI [19]: 20.7 µM
GI50 [20]: 15 µM
TGI [20]: 29.3 µM
GI50 [21]: 9.76 µM
TGI [21]: 23.7 µM
GI50 [22]: 19.5 µM
TGI [22]: 39.5 µM
GI50 [23]: 8 µM
TGI [23]: 25.5 µM
GI50 [24]: 11.7 µM
TGI [24]: 30.5 µM
GI50 [25]: 2.76 µM
TGI [25]: 14.2 µM
GI50 [26]: 5.73 µM
TGI [26]: 20.1 µM
GI50 [27]: 3.16 µM
TGI [27]: 15.5 µM
GI50 [28]: 4.16 µM
TGI [28]: 16.6 µM
GI50 [29]: 3.27 µM
TGI [29]: 44.7 µM

— PubChem BioAssay (NCI)
